Values of other authors as cited in publication PMC10125900 (The Journal of General Physiology, 2023).

Legend:
GluN1/2A–D receptors = conditions: read-out: glycine potency at GluN1, EC50; ref Hansen et al., 2021
GluN1^FA+TL/3A = conditions: read-out: glycine potency at GluN3A, EC50; ref Kvist et al., 2013a
GluN3A ABD = conditions: ref Furukawa and Gouaux, 2003; Yao and Mayer, 2006

## NCC(=O)O [glycine]
GluN1/2A–D receptors
  EC50: 0.1 to 1 µM
GluN1^FA+TL/3A
  EC50: 60 µM
GluN3A ABD
  higher affinity for isolated GluN3A ABD compared to isolated GluN1 ABD: 650 fold
